We go through 47 compounds from patent US11292791B2 (priority 2017, dated 2022).

The test deals with BRD4 (Homo sapiens (Human), UniProt O60885). The conditions noted are these: read-out: BRD4 IC50 (μM gmean).

As to `COC(=O)N1c2ccc3c(nc(CCc4nnc(C)o4)n3[C@H]3CC[C@H](C(=O)O)CC3)c2CC[C@@H]1C` [Example 38], the IC50 (in general, the midpoint of a concentration-inhibition curve) fell in the range of 1 to 1000 µM.

For `COC(=O)N1c2ccc3c(nc(CCn4ccc(C)n4)n3[C@H]3CC[C@H](C(=O)O)CC3)c2CC[C@@H]1C` [Example 39], the 50% inhibitory concentration (IC50) was 1 to 1000 µM. Regarding `COC(=O)N1c2ccc3c(nc(CCn4cc(Cl)cn4)n3[C@H]3CC[C@H](C(=O)O)CC3)c2CC[C@@H]1C` [Example 41], the half-maximal inhibitory concentration (IC50) was in the range of 1 to 1000 µM. For `COC(=O)N1c2ccc3c(nc(CCc4nc(C)no4)n3[C@H]3CC[C@H](C(=O)O)CC3)c2CC[C@@H]1C` [Example 42] the value was 1 to 1000 µM; for `COC(=O)N1c2ccc3c(nc(Cc4ccccc4)n3-c3ccc(C(=O)O)cc3)c2CC[C@@H]1C` [Example 43], 1 to 1000 µM.

Regarding `COC(=O)N1c2ccc3c(nc(Cc4ccccc4)n3-c3cccc(C(=O)O)c3)c2CC[C@@H]1C` [Example 44], the IC50 is 1 to 1000 µM. As for `COC(=O)N1c2ccc3c(nc(CCc4ccn(C)n4)n3[C@H]3CC[C@H](C(=O)O)CC3)c2CC[C@@H]1C` [Example 45], the IC50 was in the range of 1 to 1000 µM. For `COC(=O)N1c2ccc3c(nc([C@H](CO)c4ccccc4)n3C3CCOCC3)c2CC[C@@H]1C` [Example 46, methyl (7S)-2-[(1R)-2-hydroxy-1-phenylethyl]-7-methyl-3-(oxan-4-yl)-3H,6H,7H,8H,9H-imidazo[4,5-f]quinoline-6-carboxylate], the IC50 was 1 to 1000 µM. In the case of `COC(=O)N1c2ccc3c(nc([C@@H](CO)c4ccccc4)n3C3CCOCC3)c2CC[C@@H]1C` [Example 47, methyl (7S)-2-[(1S)-2-hydroxy-1-phenylethyl]-7-methyl-3-(oxan-4-yl)-3H,6H,7H,8H,9H-imidazo[4,5-f]quinoline-6-carboxylate], the IC50 fell in the range of 1 to 1000 µM.

Regarding `COC(=O)N1c2ccc3c(nc([C@H](C)c4ccccc4)n3[C@H]3CC[C@H](C(=O)O)CC3)c2CC[C@@H]1C` [Example 56, trans-4-[(7S)-6-(methoxycarbonyl)-7-methyl-2-[(1R)-1-phenylethyl]-3H,6H,7H,8H,9H-imidazo[4,5-f]quinolin-3-yl]cyclohexane-1-carboxylic Acid], the IC50 was 1 to 1000 µM.

`COC(=O)N1c2ccc3c(nc([C@@H](C)c4ccccc4)n3[C@H]3CC[C@H](C(=O)O)CC3)c2CC[C@@H]1C` [Example 57, trans-4-[(7S)-6-(methoxycarbonyl)-7-methyl-2-[(1S)-1-phenylethyl]-3H,6H,7H,8H,9H-imidazo[4,5-f]quinolin-3-yl]cyclohexane-1-carboxylic Acid]: the IC50 is 1 to 1000 µM. In the case of `COC(=O)N1c2ccc3c(nc([C@H](C)c4ccccc4)n3C3CCNCC3)c2CC[C@@H]1C` [Example 58, methyl (S)-7-methyl-2-((R)-1-phenylethyl)-3-(piperidin-4-yl)-3,7,8,9-tetrahydro-6H-imidazo[4,5-f]quinoline-6-carboxylate], the half-inhibitory concentration (IC50) was 1 to 1000 µM.

Consider `COC(=O)N1c2ccc3c(nc([C@@H](C)c4ccccc4)n3C3CCNCC3)c2CC[C@@H]1C` [Example 59, methyl (S)-7-methyl-2-((S)-1-phenylethyl)-3-(piperidin-4-yl)-3,7,8,9-tetrahydro-6H-imidazo[4,5-f]quinoline-6-carboxylate], for which the IC50 was in the range of 1 to 1000 µM. Regarding `COC(=O)N1c2ccc3c(nc(Cc4ccccc4)n3[C@@H]3CC[C@@H](CO)OC3)c2CC[C@@H]1C` [Example 66, methyl (S)-2-benzyl-3-((3R,6S)-6-(hydroxymethyl)tetrahydro-2H-pyran-3-yl)-7-methyl-3,7,8,9-tetrahydro-6H-imidazo[4,5-f]quinoline-6-carboxylate], the IC50 was 1 to 1000 µM.

As to `COC(=O)N1c2ccc3c(nc(Cn4ccccc4=O)n3[C@H]3CC[C@H](O)CC3)c2CC[C@@H]1C` [Example 71], the half-maximal inhibitory concentration (IC50) was in the range of 1 to 1000 µM. Turning to `COC(=O)N1c2ccc3c(nc(Cc4ccccc4)n3[C@@H]3CC[C@@H](C(=O)O)OC3)c2CC[C@@H]1C` [Example 72, (2S,5R)-5-((S)-2-benzyl-6-(methoxycarbonyl)-7-methyl-6,7,8,9-tetrahydro-3H-imidazo[4,5-f]quinolin-3-yl)tetrahydro-2H-pyran-2-carboxylic Acid], the IC50 fell in the range of 1 to 1000 µM. For `COC(=O)N1c2ccc3c(nc(CCc4ccccc4)n3C3CC4(CNC4)C3)c2CC[C@@H]1C` [Example 81] the value was 1 to 1000 µM. In the case of `COC(=O)N1c2ccc3c(nc(Cc4ccccc4)n3C3CC4CCC(C3)N4)c2CC[C@@H]1C` (some centres unmarked) [Example 83], the IC50 lay in the range of 1 to 1000 µM. With `COC(=O)N1c2ccc3c(nc(Cc4ccccc4)n3C[C@@H]3CCCNC3)c2CC[C@@H]1C` [Example 86], the half-maximal inhibitory concentration (IC50) was in the range of 1 to 1000 µM. For `COC(=O)N1c2ccc3c(nc(Cc4ccccc4)n3C[C@H]3CCCNC3)c2CC[C@@H]1C` [Example 87] the value was 1 to 1000 µM; for `COC(=O)N1c2ccc3c(nc(Cc4ccccc4)n3C3CCNCC3)c2CC[C@@H]1C` [Example 90], 1 to 1000 µM; for `COC(=O)N1c2ccc3c(nc(Cc4ccccc4)n3CC3CCNCC3)c2CC[C@@H]1C` [Example 93], 1 to 1000 µM. For `COC(=O)N1c2ccc3c(nc(Cc4ccccc4)n3C3CC4(CNC4)C3)c2CC[C@@H]1C` [Example 94] the value was 1 to 1000 µM; for `COC(=O)N1c2ccc3c(nc(Cc4ccccc4)n3C3CC4(CCNCC4)C3)c2CC[C@@H]1C` [Example 95], 1 to 1000 µM. As for `COC(=O)N1c2ccc3c(nc(Cc4ccccc4)n3C3CCC4(CC3)CNC4)c2CC[C@@H]1C` [Example 96], the figure is 1 to 1000 µM; as for `COC(=O)N1c2ccc3c(nc(Cc4ccccc4)n3CC3CNC3)c2CC[C@@H]1C` [Example 97], 1 to 1000 µM; as for `COC(=O)N1c2ccc3c(nc(Cc4ccccc4)n3C3CC4CNCC4C3)c2CC[C@@H]1C` (some centres unmarked) [Example 98], 1 to 1000 µM. `COC(=O)N1c2ccc3c(nc(Cc4cccc(OC(C)C)c4)n3C3CC4(CNC4)C3)c2CC[C@@H]1C` [Example 99]: the 50% inhibitory concentration (IC50) was in the range of 1 to 1000 µM. For `COC(=O)N1c2ccc3c(nc(CCc4cccc(OC)c4)n3C3CC4(CNC4)C3)c2CC[C@@H]1C` [Example 100] the value was 1 to 1000 µM; for `COC(=O)N1c2ccc3c(nc(CCc4cccc(OC(C)C)c4)n3C3CC4(CNC4)C3)c2CC[C@@H]1C` [Example 101], 1 to 1000 µM; for `COC(=O)N1c2ccc3c(nc(Cc4cccc(F)c4)n3C3CCNCC3)c2CC[C@@H]1C` [Example 102], 1 to 1000 µM. For the compound `COC(=O)N1c2ccc3c(nc(Cc4ccc(OC)c(F)c4)n3C3CCNCC3)c2CC[C@@H]1C` [Example 103], the IC50 was in the range of 1 to 1000 µM.

For `COC(=O)N1c2ccc3c(nc(CCc4ccccc4)n3C3CCNCC3)c2CC[C@@H]1C` [Example 104], the IC50 lay within 1 to 1000 µM. As for `COC(=O)N1c2ccc3c(nc(Cc4ccc(OC)cc4)n3C3CCNCC3)c2CC[C@@H]1C` [Example 107], the figure is 1 to 1000 µM.

Take `COC(=O)N1c2ccc3c(nc(Cc4ccc(OC)cc4)n3C3CCC4(CC3)CNC4)c2CC[C@@H]1C` [Example 108]: the IC50 was 1 to 1000 µM. `COC(=O)N1c2ccc3c(nc(CCn4cccn4)n3C3CCC4(CC3)CNC4)c2CC[C@@H]1C` [Example 109]: the IC50 was 1 to 1000 µM. For `COC(=O)N1c2ccc3c(nc(Cc4cccc(OC)c4)n3C3CC4(CNC4)C3)c2CC[C@@H]1C` [Example 110], the IC50 lay in the range of 1 to 1000 µM. As for `COC(=O)N1c2ccc3c(nc(Cc4ccccc4)n3[C@H]3CCC34CCNCC4)c2CC[C@@H]1C` [Example 111, methyl (S)-2-benzyl-7-methyl-3-((S)-7-azaspiro[3.5]nonan-1-yl)-3,7,8,9-tetrahydro-6H-imidazo[4,5-f]quinoline-6-carboxylate], the figure is 1 to 1000 µM. As for `COC(=O)N1c2ccc3c(nc(Cc4ccccc4)n3[C@@H]3CCC34CCNCC4)c2CC[C@@H]1C` [Example 112, methyl (S)-2-benzyl-7-methyl-3-((R)-7-azaspiro[3.5]nonan-1-yl)-3,7,8,9-tetrahydro-6H-imidazo[4,5-f]quinoline-6-carboxylate], the figure is 1 to 1000 µM. Turning to `COC(=O)N1c2ccc3c(nc(C[C@@H](C(=O)O)c4ccccc4)n3C)c2CC[C@@H]1C` [Example 133, (2R)-3-[(7S)-6-(methoxycarbonyl)-3,7-dimethyl-3H,6H,7H,8H,9H-imidazo[4,5-f]quinolin-2-yl]-2-phenylpropanoic Acid], the concentration for half-maximal inhibition (IC50) was 1 to 1000 µM. For `COC(=O)N1c2ccc3c(nc(C[C@H](C(=O)O)c4ccccc4)n3C)c2CC[C@@H]1C` [Example 134, (2S)-3-[(7S)-6-(methoxycarbonyl)-3,7-dimethyl-3H,6H,7H,8H,9H-imidazo[4,5-f]quinolin-2-yl]-2-phenylpropanoic Acid] the value was 1 to 1000 µM; for `COC(=O)N1c2ccc3c(nc(C[C@H](C(=O)O)c4ccccc4)n3C)c2CC[C@@H]1C` [Example 135, (S)-3-((S)-6-(methoxycarbonyl)-3,7-dimethyl-6,7,8,9-tetrahydro-3H-imidazo[4,5-f]quinolin-2-yl)-2-phenylpropanoic Acid], 1 to 1000 µM; for `COC(=O)N1c2ccc3c(nc(C[C@@H](C(=O)O)c4ccccc4)n3C)c2CC[C@@H]1C` [Example 136, (R)-3-((S)-6-(methoxycarbonyl)-3,7-dimethyl-6,7,8,9-tetrahydro-3H-imidazo[4,5-f]quinolin-2-yl)-2-phenylpropanoic Acid], 1 to 1000 µM. `COC(=O)N1c2ccc3c(nc(C[C@@H](C(=O)O)c4ccccc4)n3CCN(C)C)c2CC[C@@H]1C` [Example 137, (R)-3-((S)-3-(2-(dimethylamino)ethyl)-6-(methoxycarbonyl)-7-methyl-6,7,8,9-tetrahydro-3H-imidazo[4,5-f]quinolin-2-yl)-2-phenylpropanoic Acid]: the IC50 is 1 to 1000 µM. For `COC(=O)N1c2ccc3c(nc(C[C@H](C(=O)O)c4ccccc4)n3CCN(C)C)c2CC[C@@H]1C` [Example 138, (S)-3-((S)-3-(2-(dimethylamino)ethyl)-6-(methoxycarbonyl)-7-methyl-6,7,8,9-tetrahydro-3H-imidazo[4,5-f]quinolin-2-yl)-2-phenylpropanoic Acid] the value was 1 to 1000 µM. As for `COC(=O)N1c2ccc3c(nc(CCn4cccn4)n3CCN3CCOCC3)c2CC[C@@H]1C` [Example 226], the figure is 1 to 1000 µM; as for `COC(=O)N1c2ccc3c(nc(CCn4cccn4)n3CCN3CCN(C)CC3)c2CC[C@@H]1C` [Example 227], 1 to 1000 µM.
